In patent US10918648B2, “Estrogen receptor modulator combinations” (The Regents of the University of California, priority 2016, dated 2021):
Where two headings read alike, the source gives them in different places.

Assays:
[1] = system: A549 NSCLC cells; experiment: NSCLC cell proliferation in vitro (MTS assay); type: cell-based, human; settings: 72 hours; for IC50: MTS assay
[2] = system: H1975 NSCLC cells; experiment: NSCLC cell proliferation in vitro (MTS assay); type: cell-based, human; settings: 72 hours
Experimental: (§1) Cell culture: Human breast and non-small cell lung cancer cells (MCF7, ZR75-1, MDAMB231, A549, H23, H1975, […]) were from ATCC. MCF7-HER2 were a kind gift of Dr. Dennis Slamon (23). Cell lines were routinely maintained in RPMI 1640 or DMEM medium with 10% fetal bovine serum (FBS) (Sigma-Aldrich) and 1% Antibiotic-Antimycotic solution 100× (Mediatech, Herndon, Va.). When indicated, for estrogen-free conditions, media was changed 48 h before experiments to phenol-red free RPMI 1640/DMEM with 1% dextran-coated, charcoal-treated (DCC)-FBS (24,25). Otherwise experiments were performed in phenol-red free RPMI 1640/DMEM medium with 5% DCC-FBS.
(§2) Cell proliferation assays: breast and lung tumor cells (between […]) were plated in 96 well plates using their respective medium with 10% FBS. For experiments using estradiol-17β, cells were rinsed with PBS and incubated with phenol redfree medium with 1% DCC-FBS for 48 hours as described before (24,25). Cells were then treated with different concentrations of SERDs ranging between 0.0001-100 μM. […] Cell counts and viability tests (Trypan blue) were done every 24 hr for 3 days. After 72 hr, proliferation was assessed with the MTS Assay CELLTITER 96® Aqueous Cell Proliferation Assay (Promega) or the Cell Proliferation ELISA, BrdU colorimetric assay (Roche). For the MTS, the absorbance of the formazan product was measured at 490 nanometer using the iMARK microplate reader from BIORAD. The BrdU ELISA assay is based on detection of BrdU incorporated into the genomic DNA of proliferating cells and an anti-BrdU antibody, the reaction product was quantified by measuring the absorbance at 370 nanometers using iMARK microplate reader from BIORAD. Cell numbers were also assessed initially by cell counts to confirm MTS/BrdU data. Experiments were done at least three times to confirm data.

[3] = system: H2122 NSCLC cells; experiment: NSCLC cell proliferation in vitro (MTS assay); type: cell-based, human; settings: 72 hours
Experimental: as §1, §2

[4] = target: T1, estrogen receptor-alpha (Homo sapiens, UniProt P03372); experiment: ER down-regulation, Western immunoblot of ERα protein in MCF-7 cells; type: cell-based; settings: for estrogen receptor-alpha expression (ERα protein levels, Western immunoblot): 1 μM or 10 μM, 48 hrs, in the presence of 1 nM estradiol, FIG. 3A
T1 construct: MCF-7 breast cancer cells with high expression of ERα protein were treated with; endogenous in cells; host or cells: MCF-7 human breast cancer cells
T1 sequence (P03372 1-595): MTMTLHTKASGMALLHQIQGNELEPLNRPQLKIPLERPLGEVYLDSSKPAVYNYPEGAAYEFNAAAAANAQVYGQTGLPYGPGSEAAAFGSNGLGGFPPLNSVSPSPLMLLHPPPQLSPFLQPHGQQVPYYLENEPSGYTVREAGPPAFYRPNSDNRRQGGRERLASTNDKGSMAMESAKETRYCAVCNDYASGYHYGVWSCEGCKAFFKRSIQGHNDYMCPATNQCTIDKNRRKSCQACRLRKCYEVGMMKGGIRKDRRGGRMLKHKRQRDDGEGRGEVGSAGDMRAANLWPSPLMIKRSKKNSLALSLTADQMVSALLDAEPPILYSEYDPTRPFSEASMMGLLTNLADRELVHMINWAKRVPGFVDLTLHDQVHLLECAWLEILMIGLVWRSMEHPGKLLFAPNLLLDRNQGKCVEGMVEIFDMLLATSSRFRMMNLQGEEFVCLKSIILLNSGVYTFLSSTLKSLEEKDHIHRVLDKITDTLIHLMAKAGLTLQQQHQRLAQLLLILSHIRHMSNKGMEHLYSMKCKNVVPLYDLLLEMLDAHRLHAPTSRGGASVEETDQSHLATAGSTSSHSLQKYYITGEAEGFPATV
Experimental: MCF-7 breast cancer cells were maintained in estrogen-free conditions 48 h before experiments as described above. Cells were then incubated with vehicle control or either 1 μM or 10 μM antiestrogens in the presence of 1 nM estradiol-1713 for 48 hrs. After lysis, total cell proteins were resolved by 4-15% SDS-PAGE, transferred to polyvinylidene difluoride membranes and probed with mouse monoclonal antibody directed against estrogen receptor-alpha (Assay Designs, #SRA1010). Membranes were stripped and re-probed with Ribosomal Protein L13A (Santa Cruz Biotechnology, C11) as a loading control (45).
Fulvestrant (Faslodex®) has been characterized as a selective ERα downregulator and a pure anti-estrogen. Fulvestrant inhibits the transcriptional response to estrogen stimulation and induces the degradation of estrogen receptor proteins (46,47). […] One problem with fulvestrant is that the drug requires intramuscular injection and may not achieve optimal antitumor effects due to the limited doses that can be administered by this drug delivery method. […] MCF-7 breast cancer cells with high expression of ERα protein were treated with estradiol-170 and either 1 μM or 10 μM concentrations of JD128 and JD140 for 48 hours. […] MCF-7 breast cancer cells were estrogen-deprived for 48 hrs, then treated with 1 nM estradiol-170 (E2) or antiestrogens JD128 (128) or JD140 (140) at 1 μM or 10 μM concentrations in the presence of 1 nM estradiol-170. After 48 hrs, PAGE and immunoblotting was performed with antibody directed to anti-ERα (SRA1010) and anti-RPL13A for a loading control.
ER down-regulation: To determine if selected compounds can down-regulate ER protein, we treated cells for 24-48 hrs in vitro with candidate compounds at varying doses. Then, cells were disrupted and prepared for PAGE and Western immunoblots using anti-ERα antibodies (see FIG. 6A). […] Those ERDs with optimal activity in down-regulating ER were investigated further in the chemistry laboratory to further refine and develop such agents. […]

[5] = Homo sapiens, A549, SERD alone, estrogen-depleted phenol red-free medium with 5% DCC-FBS, read-out: IC50 for inhibition of NSCLC cell proliferation, A549
[6] = in the presence of 1 μM abemaciclib, 5% DCC-FBS, read-out: IC50 of SERD for inhibition of NSCLC cell proliferation, A549
[7] = in the presence of 1 μM palbociclib, 5% DCC-FBS, read-out: IC50 of SERD for inhibition of NSCLC cell proliferation, A549
[8] = in the presence of 1 μM palbociclib, 5% DCC-FBS, read-out: IC50 of SERD for inhibition of NSCLC cell proliferation, H1975
[9] = Homo sapiens, NCI-H2122, SERD alone, estrogen-depleted phenol red-free medium with 5% DCC-FBS, read-out: IC50 for inhibition of NSCLC cell proliferation, H2122
[10] = in the presence of 1 μM abemaciclib, 5% DCC-FBS, read-out: IC50 of SERD for inhibition of NSCLC cell proliferation, H2122
[11] = in the presence of 1 μM palbociclib, 5% DCC-FBS, read-out: IC50 of SERD for inhibition of NSCLC cell proliferation, H2122
[12] = Homo sapiens, NCI-H1975, SERD alone, estrogen-depleted phenol red-free medium with 5% DCC-FBS, read-out: IC50 for inhibition of NSCLC cell proliferation, H1975

SMILES | IC50 [1, 5] | IC50 [1, 6] | IC50 [1, 7] | IC50 [2, 8] | IC50 [3, 9] | IC50 [3, 10] | IC50 [3, 11] | estrogen receptor-alpha expression (ERα protein levels, Western immunoblot) [4] | antiproliferative effects compared with fulvestrant ([1]; A549, RPMI 1640 with 10% FBS, 1 μM or 10 μM, FIG. 8A) | IC50 [2, 12] | IC50 ([2]; in the presence of 1 μM abemaciclib, 5% DCC-FBS, read-out: IC50 of SERD for inhibition of NSCLC cell proliferation, H1975) | ER protein levels (Western immunoblot) ([4]; 24 hours, 10, 100 and 1000 nM, FIG. 6A)
C[C@]12C[C@H](Oc3ccc(N)c(C(F)(F)F)c3)[C@@H]3c4ccc(O)cc4CC[C@H]3[C@@H]1CC[C@@H]2O [JD128, (8S,9S,11S,13S,14S,17S)-11-(4-Amino-3-(trifluoromethyl)phenoxy)-13-methyl-7,8,9,11,12,13,14,15,16,17-decahydro-6H-cyclopenta[a]phenanthrene-3,17-diol] | 1090 nM | 660 nM | 1340 nM | 12400 nM | 1310 nM | 230 nM | 960 nM | greatest effect at suppressing estrogen receptor-alpha expression | – | – | – | –
C[C@]12C[C@H](Oc3ccc(NC(=O)CCCCN4CCCCC4)c(F)c3)[C@@H]3c4ccc(O)cc4CC[C@H]3[C@@H]1CC[C@@H]2O [JD140, N-(4-(((8S,9S,11S,13S,14S,17S)-3,17-Dihydroxy-13-methyl-7,8,9,11,12,13,14,15,16,17-deca-hydro-6H-cyclopenta[a]phenanthren-11-yl)oxy)-2-fluorophenyl)-5-(piperidin-1-yl)pentan-amide] | 500 nM | 640 nM | 1220 nM | 17100 nM | 1140 nM | 30 nM | 1110 nM | down-regulated | significant antiproliferative effects | 1860 nM | – | –
C[C@]12C[C@H](Oc3ccc(N)cc3)[C@@H]3c4ccc(O)cc4CC[C@H]3[C@@H]1CC[C@@H]2O [JD105, (8S,9S,11S,13S,14S,17S)-11-(4-aminophenoxy)-13-methyl-7,8,9,11,12,13,14,15,16,17-decahydro-6H-cyclopenta[a]phenanthrene-3,17-diol] | – | 410 nM | 2570 nM | 4780 nM | 3830 nM | 1480 nM | 4200 nM | – | – | 4500 nM | 1060 nM | reduces ER protein levels
